Tests used:
[1] = tested on: cultured myeloid (K-562) cells from patients with chronic myeloid leukemia; experiment: ratio of [1-13C1]-D-ribose to [1,2-13C2]-D-ribose (m1/m2) in cultured CML myeloid cells exposed to Gleevec, ribose mass spectral analysis; assay type: cell-based, human; conditions: myeloid cells from two patients resistant to Gleevec, increasing concentrations of Gleevec; cut off 0.65 for resistance
Source text: FIG. 5 depicts the results of studies comparing the ratio of [1-^13C1]-D-ribose to [1,2-^13C2]-D-ribose in cultured myeloid cells from patients with chronic myeloid leukemia using increasing concentrations of Gleevec (“x” axis). The set of vertical bars on the left are observed values of m1 and the set of vertical bars on the right are observed values of m2. The calculated ratios of m1/m2 are provided above the horizontal lines. In this experiment, a cut off point of 0.65 to detect resistance was used to identify Gleevec resistance. Cells from two patients resistant to Gleevec have m1/m2 ratios below 0.65, as indicated by an asterisk.
(§1) When the ratio of [1-^13C1]-D-ribose to [1,2-^13C2]-D-ribose is less than 1 (e.g., 0.5) the patient is at risk of having a reduced response to treatment with a cancer therapeutic such as imatinib. The increased risk of developing a reduced response to imatinib includes any increased risk. In embodiments of the invention, the increased risk is about a 10% decrease in the ratio described above indicating the risk of developing imatinib resistance. In other embodiments, the increased risk is indicated by about a 10%, 15%, 20%, 25%, 50%, 75%, 85%, 90%, 95%, 98%, 99%, or 99.9% decrease in the ratio of [1-^13C1]-D-ribose to [1,2-^13C2]-D-ribose. […]

LAMA84r cells = conditions: high doses; cited from earlier work
[2] = tested on: rat neuroblastoma (C6) cells; experiment: ratio of [1-13C1]-D-ribose to [1,2-13C2]-D-ribose (m1/m2) in cultured cells contacted with [1,2-13C2]-D-glucose; assay type: cell-based; conditions: untreated ratio 2.35
Source text: FIG. 6 depicts the results of in culture studies comparing the ratio of [1-^13C1]-D-ribose to [1,2-^13C2]-D-ribose in rat neuroblastoma (C6) cells which are sensitive to imatinib treatment. The increased ratio of m1/m2 ^13C in ribose indicates sensitivity to Gleevec, which is further increased by Hydroxyurea treatment, which is a well known chemotherapeutic agent for the treatment of various human cancers. The set of vertical bars on the left are observed values of m1 and the set of vertical bars on the right are observed values of m2. The calculated ratios of m1/m2 are provided above the horizontal lines.
as §1

K562r cells = conditions: high doses; cited from earlier work

Row | Structure (SMILES) | m1/m2 ratio [1] | response to Gleevec treatment (LAMA84r cells) | ratio of [1-13C1]-D-ribose to [1,2-13C2]-D-ribose (m1/m2) ([2]; 3.0 μM Gleevec) | response to Gleevec treatment (K562r cells) | ratio of [1-13C1]-D-ribose to [1,2-13C2]-D-ribose (m1/m2) ([2]; 100 μM hydroxyurea)
1 | Cc1ccc(NC(=O)c2ccc(CN3CCN(C)CC3)cc2)cc1Nc1nccc(-c2cccnc2)n1 [Gleevec, imatinib] | below 0.65 | do not respond well even to high doses | 2.97 | do not respond well even to high doses | –
2 | NC(=O)NO [hydroxyurea] | – | – | – | – | 3.59

From US20060228301A1, “Methods and compositions for determining targeted drug sensitivity and resistance in a cancer subject” (priority 2005, published 2006)
